# In patent US20250312462A1, “PAK1 DEGRADERS AND METHODS OF USE THEREOF” (INSTITUTE FOR CANCER RESEARCH D/B/A THE RESEARCH INSTITUTE …, priority 2022, published 2025):
# pEC50: −log10 of the molar value. Read-outs that look alike come from different tables or passages of the source.
# Experiments:
# TBK1 = TBK1 (Homo sapiens, UniProt Q9UHD2); assay: KINOMEscan; conditions: read-out: Percent Control
# Protocol: (§1) The kinase engagement assay (KINOMEscan®) was performed by DiscoverX assessing binding abilities toward a set of kinases.
# [1] = target: ABL1(F317L)-nonphosphorylated (Homo sapiens, UniProt P00519, F317L); assay: KINOMEscan; conditions: read-out: Percent Control
# Protocol: as §1
# PCTK3 = PCTK3 (Homo sapiens, UniProt Q07002); assay: KINOMEscan; conditions: read-out: Percent Control
# Protocol: as §1
# ROS1 = ROS1 (Homo sapiens, UniProt P08922); assay: KINOMEscan; conditions: read-out: Percent Control
# Protocol: as §1
# WNK3 = WNK3 (Homo sapiens, UniProt Q9BYP7); assay: KINOMEscan; conditions: read-out: Percent Control
# Protocol: as §1
# PIK3CG = PIK3CG (Homo sapiens, UniProt P48736); assay: KINOMEscan; conditions: read-out: Percent Control
# Protocol: as §1
# OVCAR3 cells = assay: Cell proliferation, MTT assay; type: cell-based; conditions: Homo sapiens, OVCAR-3, OVCAR3 cells, read-out: EC50, anti-proliferative
# Protocol: […]. Cell proliferation was assessed by MTT assay. […].
# Cells were plated at 2×10^3 cells per well in 96-well plates overnight and treated with various concentrations of Pak degraders for 72 hours. Cell viability was measured by MTT assay and the half maximal inhibitory concentration (IC50) was calculated using GraphPad Prism. Triplicates were performed for each sample and medium alone was used as a blank.
# The anti-proliferative effects of PAK1 degradation and inhibition were evaluated. […]. […] […]. […] […].
# [2] = target: RPS6KA4(Kin.Dom.2-C-terminal) (Homo sapiens, UniProt O75676); assay: KINOMEscan; conditions: read-out: Percent Control
# Protocol: as §1
# OSR1 = OSR1 (Homo sapiens, UniProt O95747); assay: KINOMEscan; conditions: read-out: Percent Control
# Protocol: as §1
# MET(Y1235D) = MET(Y1235D) (Homo sapiens, UniProt P08581, Y1235D); assay: KINOMEscan; conditions: read-out: Percent Control
# Protocol: as §1
# HPK1 = HPK1 (Homo sapiens, UniProt Q92918); assay: KINOMEscan; conditions: read-out: Percent Control
# HPK1, sequence (Q92918 whole entry): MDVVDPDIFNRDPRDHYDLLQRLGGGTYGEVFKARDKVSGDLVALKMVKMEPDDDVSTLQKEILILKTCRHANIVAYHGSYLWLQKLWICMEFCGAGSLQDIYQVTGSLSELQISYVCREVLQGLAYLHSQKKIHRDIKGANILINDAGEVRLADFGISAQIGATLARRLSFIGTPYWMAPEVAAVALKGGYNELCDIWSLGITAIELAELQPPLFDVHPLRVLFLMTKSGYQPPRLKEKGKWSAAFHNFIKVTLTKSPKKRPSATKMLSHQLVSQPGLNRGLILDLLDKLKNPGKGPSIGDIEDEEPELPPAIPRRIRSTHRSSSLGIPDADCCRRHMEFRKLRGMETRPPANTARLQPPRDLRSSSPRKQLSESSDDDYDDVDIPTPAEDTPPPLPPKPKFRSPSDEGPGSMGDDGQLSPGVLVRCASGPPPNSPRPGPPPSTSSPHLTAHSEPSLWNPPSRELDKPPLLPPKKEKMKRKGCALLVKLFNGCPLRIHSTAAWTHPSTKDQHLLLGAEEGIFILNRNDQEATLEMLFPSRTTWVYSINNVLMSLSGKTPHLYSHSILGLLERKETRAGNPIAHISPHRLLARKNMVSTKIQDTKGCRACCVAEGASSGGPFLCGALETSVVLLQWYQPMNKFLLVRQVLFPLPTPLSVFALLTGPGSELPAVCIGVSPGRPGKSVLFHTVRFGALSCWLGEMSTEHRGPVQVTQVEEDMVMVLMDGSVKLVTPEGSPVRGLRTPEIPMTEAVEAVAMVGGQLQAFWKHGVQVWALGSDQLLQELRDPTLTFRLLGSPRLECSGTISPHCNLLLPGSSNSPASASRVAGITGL
# Protocol: as §1
# DLK = DLK (Homo sapiens, UniProt Q12852); assay: KINOMEscan; conditions: read-out: Percent Control
# Protocol: as §1
# PAK2 = PAK2 (Homo sapiens, UniProt Q13177); assay: KINOMEscan; conditions: read-out: Percent Control
# Protocol: as §1
# SRC = SRC (Homo sapiens, UniProt P12931); assay: KINOMEscan; conditions: read-out: Percent Control
# Protocol: as §1
# MUSK = MUSK (Homo sapiens, UniProt O15146); assay: KINOMEscan; conditions: read-out: Percent Control
# Protocol: as §1
# MKNK1 = MKNK1 (Homo sapiens, UniProt Q9BUB5); assay: KINOMEscan; conditions: read-out: Percent Control
# Protocol: as §1
# GRK1 = GRK1 (Homo sapiens, UniProt Q15835); assay: KINOMEscan; conditions: read-out: Percent Control
# Protocol: as §1
# PIK3CA(Q546K) = PIK3CA(Q546K) (Homo sapiens, UniProt P42336, Q546K); assay: KINOMEscan; conditions: read-out: Percent Control
# Protocol: as §1
# [3] = target: RSK3(Kin.Dom.2-C-terminal) (Homo sapiens, UniProt Q15349); assay: KINOMEscan; conditions: read-out: Percent Control
# RSK3(Kin.Dom.2-C-terminal), sequence (Q15349 415-672 limits assumed): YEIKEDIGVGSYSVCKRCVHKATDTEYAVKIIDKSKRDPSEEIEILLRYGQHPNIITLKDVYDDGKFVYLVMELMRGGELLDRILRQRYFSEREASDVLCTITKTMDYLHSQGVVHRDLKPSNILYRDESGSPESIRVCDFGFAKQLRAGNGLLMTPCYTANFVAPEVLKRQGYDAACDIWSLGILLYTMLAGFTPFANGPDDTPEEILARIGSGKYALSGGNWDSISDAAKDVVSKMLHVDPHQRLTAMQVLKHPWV
# Protocol: as §1
# NEK2 = NEK2 (Homo sapiens, UniProt P51955); assay: KINOMEscan; conditions: read-out: Percent Control
# NEK2, sequence (P51955 whole entry): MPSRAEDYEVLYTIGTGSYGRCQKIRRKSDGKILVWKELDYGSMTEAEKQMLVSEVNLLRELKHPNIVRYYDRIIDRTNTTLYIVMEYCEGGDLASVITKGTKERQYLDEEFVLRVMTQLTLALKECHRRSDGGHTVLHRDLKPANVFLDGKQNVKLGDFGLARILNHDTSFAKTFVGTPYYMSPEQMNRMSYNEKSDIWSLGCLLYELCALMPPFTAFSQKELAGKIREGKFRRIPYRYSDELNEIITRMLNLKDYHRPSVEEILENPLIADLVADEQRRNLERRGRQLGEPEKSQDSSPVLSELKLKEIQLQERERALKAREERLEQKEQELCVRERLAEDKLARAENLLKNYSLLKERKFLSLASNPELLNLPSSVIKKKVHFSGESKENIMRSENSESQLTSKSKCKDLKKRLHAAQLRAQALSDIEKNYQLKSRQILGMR
# Protocol: as §1
# PRKD3 = PRKD3 (Homo sapiens, UniProt O94806); assay: KINOMEscan; conditions: read-out: Percent Control
# PRKD3, sequence (O94806 whole entry): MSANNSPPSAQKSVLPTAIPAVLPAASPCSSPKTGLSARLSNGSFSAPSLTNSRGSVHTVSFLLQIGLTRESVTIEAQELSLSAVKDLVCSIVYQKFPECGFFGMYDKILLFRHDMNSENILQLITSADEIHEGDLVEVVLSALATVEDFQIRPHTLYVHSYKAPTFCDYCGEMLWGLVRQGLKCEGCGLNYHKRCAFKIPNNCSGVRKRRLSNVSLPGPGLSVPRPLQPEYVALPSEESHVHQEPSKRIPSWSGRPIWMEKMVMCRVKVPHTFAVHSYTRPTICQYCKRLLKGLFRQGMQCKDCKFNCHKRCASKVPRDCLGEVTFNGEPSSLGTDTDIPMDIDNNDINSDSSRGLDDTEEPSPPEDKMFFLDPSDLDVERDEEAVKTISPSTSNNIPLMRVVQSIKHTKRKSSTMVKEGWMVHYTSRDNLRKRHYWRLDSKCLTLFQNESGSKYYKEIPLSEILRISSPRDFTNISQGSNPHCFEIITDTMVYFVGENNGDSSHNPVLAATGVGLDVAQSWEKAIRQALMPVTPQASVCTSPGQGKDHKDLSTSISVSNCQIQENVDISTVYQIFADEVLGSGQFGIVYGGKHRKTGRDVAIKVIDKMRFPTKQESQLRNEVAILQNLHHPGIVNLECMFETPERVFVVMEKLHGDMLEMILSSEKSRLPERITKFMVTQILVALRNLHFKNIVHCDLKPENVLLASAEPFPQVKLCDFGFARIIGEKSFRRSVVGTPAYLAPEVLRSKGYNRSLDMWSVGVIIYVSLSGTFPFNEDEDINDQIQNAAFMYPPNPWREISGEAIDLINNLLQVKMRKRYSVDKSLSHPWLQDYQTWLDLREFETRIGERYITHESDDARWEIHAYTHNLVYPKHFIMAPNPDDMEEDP
# Protocol: as §1
# PLK3 = PLK3 (Homo sapiens, UniProt Q9H4B4); assay: KINOMEscan; conditions: read-out: Percent Control
# Protocol: as §1
# HIPK3 = HIPK3 (Homo sapiens, UniProt Q9H422); assay: KINOMEscan; conditions: read-out: Percent Control
# HIPK3, sequence (Q9H422 whole entry): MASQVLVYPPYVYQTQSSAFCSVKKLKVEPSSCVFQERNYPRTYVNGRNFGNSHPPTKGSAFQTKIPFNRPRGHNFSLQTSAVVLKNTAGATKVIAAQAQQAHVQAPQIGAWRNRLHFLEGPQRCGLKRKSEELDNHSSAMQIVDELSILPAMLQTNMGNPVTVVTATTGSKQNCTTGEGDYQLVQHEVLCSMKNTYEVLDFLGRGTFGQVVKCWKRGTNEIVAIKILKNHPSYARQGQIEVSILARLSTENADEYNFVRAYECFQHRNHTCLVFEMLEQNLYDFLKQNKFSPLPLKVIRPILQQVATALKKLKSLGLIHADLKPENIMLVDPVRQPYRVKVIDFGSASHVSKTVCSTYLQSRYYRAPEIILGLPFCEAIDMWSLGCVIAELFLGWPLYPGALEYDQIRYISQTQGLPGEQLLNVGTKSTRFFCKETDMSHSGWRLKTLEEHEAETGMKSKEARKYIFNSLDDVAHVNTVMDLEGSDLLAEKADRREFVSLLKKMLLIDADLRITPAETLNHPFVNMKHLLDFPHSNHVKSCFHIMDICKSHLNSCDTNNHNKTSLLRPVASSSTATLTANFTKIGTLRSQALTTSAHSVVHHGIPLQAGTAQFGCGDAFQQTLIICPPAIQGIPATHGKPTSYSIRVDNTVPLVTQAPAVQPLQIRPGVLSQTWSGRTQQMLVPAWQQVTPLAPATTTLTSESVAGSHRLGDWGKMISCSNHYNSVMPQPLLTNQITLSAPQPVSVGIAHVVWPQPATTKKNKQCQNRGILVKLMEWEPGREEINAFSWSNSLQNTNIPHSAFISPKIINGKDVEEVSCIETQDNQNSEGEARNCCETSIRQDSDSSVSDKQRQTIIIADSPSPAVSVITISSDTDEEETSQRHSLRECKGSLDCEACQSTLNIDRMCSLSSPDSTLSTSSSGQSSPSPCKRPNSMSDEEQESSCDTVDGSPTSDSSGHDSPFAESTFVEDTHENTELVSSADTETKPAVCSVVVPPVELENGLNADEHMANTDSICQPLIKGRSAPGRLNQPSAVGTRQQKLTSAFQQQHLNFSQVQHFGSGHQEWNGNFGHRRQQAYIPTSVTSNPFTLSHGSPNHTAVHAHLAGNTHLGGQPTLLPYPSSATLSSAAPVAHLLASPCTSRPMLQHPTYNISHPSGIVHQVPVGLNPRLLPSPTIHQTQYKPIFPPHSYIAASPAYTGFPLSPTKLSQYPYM
# Protocol: as §1
# JNK3 = JNK3 (Homo sapiens, UniProt P53779); assay: KINOMEscan; conditions: read-out: Percent Control
# Protocol: as §1
# TIE1 = TIE1 (Homo sapiens, UniProt P35590); assay: KINOMEscan; conditions: read-out: Percent Control
# Protocol: as §1
# TNK2 = TNK2 (Homo sapiens, UniProt Q07912); assay: KINOMEscan; conditions: read-out: Percent Control
# Protocol: as §1
# [4] = target: ABL1(H396P)-phosphorylated (Homo sapiens, UniProt P00519, H396P); assay: KINOMEscan; conditions: read-out: Percent Control
# Protocol: as §1
# CLK2 = CLK2 (Homo sapiens, UniProt P49760); assay: KINOMEscan; conditions: read-out: Percent Control
# Protocol: as §1
# NDR2 = NDR2 (Homo sapiens, UniProt Q9Y2H1); assay: KINOMEscan; conditions: read-out: Percent Control
# NDR2, sequence (Q9Y2H1 whole entry): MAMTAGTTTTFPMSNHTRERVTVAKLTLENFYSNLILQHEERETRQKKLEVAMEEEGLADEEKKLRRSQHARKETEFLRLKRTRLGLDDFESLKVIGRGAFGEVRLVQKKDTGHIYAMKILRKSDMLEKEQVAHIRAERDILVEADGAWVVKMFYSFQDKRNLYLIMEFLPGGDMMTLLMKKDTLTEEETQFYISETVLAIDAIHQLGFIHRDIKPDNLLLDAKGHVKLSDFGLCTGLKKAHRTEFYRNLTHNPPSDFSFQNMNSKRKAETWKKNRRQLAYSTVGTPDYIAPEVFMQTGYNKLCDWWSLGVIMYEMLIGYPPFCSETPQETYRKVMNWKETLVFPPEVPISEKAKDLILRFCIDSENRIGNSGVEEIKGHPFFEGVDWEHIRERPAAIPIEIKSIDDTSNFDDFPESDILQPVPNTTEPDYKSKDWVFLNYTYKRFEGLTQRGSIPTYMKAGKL
# Protocol: as §1
# ICK = ICK (Homo sapiens, UniProt Q9UPZ9); assay: KINOMEscan; conditions: read-out: Percent Control
# Protocol: as §1
# [5] = target: JAK1(JH2domain-pseudokinase) (Homo sapiens, UniProt P23458); assay: KINOMEscan; conditions: read-out: Percent Control
# Protocol: as §1
# MYLK4 = MYLK4 (Homo sapiens, UniProt Q86YV6); assay: KINOMEscan; conditions: read-out: Percent Control
# Protocol: as §1
# FLT4 = FLT4 (Homo sapiens, UniProt P35916); assay: KINOMEscan; conditions: read-out: Percent Control
# Protocol: as §1
# SNRK = SNRK (Homo sapiens, UniProt Q9NRH2); assay: KINOMEscan; conditions: read-out: Percent Control
# SNRK, sequence (Q9NRH2 whole entry): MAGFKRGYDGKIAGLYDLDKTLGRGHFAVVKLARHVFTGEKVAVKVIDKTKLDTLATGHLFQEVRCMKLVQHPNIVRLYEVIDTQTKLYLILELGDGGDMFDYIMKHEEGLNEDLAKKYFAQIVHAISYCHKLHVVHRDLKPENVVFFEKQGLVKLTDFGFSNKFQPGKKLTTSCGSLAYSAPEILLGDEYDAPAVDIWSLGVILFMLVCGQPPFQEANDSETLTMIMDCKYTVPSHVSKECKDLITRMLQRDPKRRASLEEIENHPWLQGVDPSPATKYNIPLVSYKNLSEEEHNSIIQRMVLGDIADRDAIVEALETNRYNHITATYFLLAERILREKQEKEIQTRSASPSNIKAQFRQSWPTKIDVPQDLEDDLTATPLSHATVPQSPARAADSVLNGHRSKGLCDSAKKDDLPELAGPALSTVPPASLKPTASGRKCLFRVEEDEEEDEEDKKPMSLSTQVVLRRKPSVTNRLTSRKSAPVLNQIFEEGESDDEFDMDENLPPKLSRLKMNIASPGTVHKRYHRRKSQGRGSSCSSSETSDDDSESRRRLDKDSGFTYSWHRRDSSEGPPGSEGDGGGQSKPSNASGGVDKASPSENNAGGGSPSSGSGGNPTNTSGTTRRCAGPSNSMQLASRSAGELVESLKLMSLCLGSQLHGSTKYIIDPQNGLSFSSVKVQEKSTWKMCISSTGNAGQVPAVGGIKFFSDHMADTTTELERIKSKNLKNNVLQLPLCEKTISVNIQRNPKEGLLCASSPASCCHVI
# Protocol: as §1
# PCTK2 = PCTK2 (Homo sapiens, UniProt Q00537); assay: KINOMEscan; conditions: read-out: Percent Control
# Protocol: as §1
smiles,measurement,setting,value
"O=C1CCC(N2C(=O)c3cccc(NCCCCCCCCNC(=O)N4CC[C@H](NC5=Nc6cc(F)ccc6N(CC(F)F)c6ccc(Cl)cc65)C4)c3C2=O)C(=O)N1 (stereo partly drawn) [BJG-05-039, (3S)-3-((2-Chloro-5-(2,2-difluoroethyl)-8-fluoro-5H-dibenzo[b,e][1,4]diazepin-11-yl)amino)-N-(8-((2-(2,6-dioxopiperidin-3-yl)-1,3-dioxoisoindolin-4-yl)amino)octyl)pyrrolidine-1-carboxamide]",remaining binding at 10 µM,TBK1,100%
same,remaining binding at 10 µM,[1],77%
same,remaining binding at 10 µM,PCTK3,91%
same,remaining binding at 10 µM,ROS1,94%
same,remaining binding at 10 µM,WNK3,89%
same,remaining binding at 10 µM,PIK3CG,77%
same,pEC50,OVCAR3 cells; first statement of b311,8.08
same,pEC50,OVCAR3 cells; second listing of b311,6.99
same,remaining binding at 10 µM,[2],99%
same,remaining binding at 10 µM,OSR1,100%
same,remaining binding at 10 µM,MET(Y1235D),63%
same,remaining binding at 10 µM,HPK1,92%
same,remaining binding at 10 µM,DLK,100%
same,remaining binding at 10 µM,PAK2,87%
same,remaining binding at 10 µM,SRC,88%
same,remaining binding at 10 µM,MUSK,60%
same,remaining binding at 10 µM,MKNK1,100%
same,remaining binding at 10 µM,GRK1,89%
same,remaining binding at 10 µM,PIK3CA(Q546K),100%
same,remaining binding at 10 µM,[3],51%
same,remaining binding at 10 µM,NEK2,52%
same,remaining binding at 10 µM,PRKD3,37%
same,remaining binding at 10 µM,PLK3,99%
same,remaining binding at 10 µM,HIPK3,100%
same,remaining binding at 10 µM,JNK3,88%
same,remaining binding at 10 µM,TIE1,62%
same,remaining binding at 10 µM,TNK2,92%
same,remaining binding at 10 µM,[4],100%
same,remaining binding at 10 µM,CLK2,95%
same,remaining binding at 10 µM,NDR2,45%
same,remaining binding at 10 µM,ICK,99%
same,remaining binding at 10 µM,[5],100%
same,remaining binding at 10 µM,MYLK4,100%
same,remaining binding at 10 µM,FLT4,86%
same,remaining binding at 10 µM,SNRK,89%
same,remaining binding at 10 µM,PCTK2,58%
